Reference: patent US10925839B2, “Composition for treating joint disease and kit containing same” (SEIKAGAKU CORPORATION, priority 2017, dated 2021)

Test system: human knee osteoarthritis patients
Assay: Randomized placebo-controlled double-blind trial, WOMAC A (pain) evaluation by VAS
Format: in vivo
Conditions: 12 weeks after initial administration; for WOMAC-A Change (average change from baseline): MMRM estimate
Description: The effectiveness of the investigational drug (test drug (composition for treating joint disease of invention) or placebo) when administered 3 times at four-week intervals in the knee joint cavities of human knee osteoarthritis patients was investigated by a multi-center collaborative, randomized, placebo-controlled, double-blind, parallel-group comparison trial. The test drug and placebo were as follows:
Test drug: 3 mL of aqueous solution for injection containing 30 mg of test substance (3.6 mg as diclofenac);
The total amount (3 mL) of the test drug or placebo was administered (injected) into the knee joint cavities of the affected knees of the target patients on week 0, week 4 and week 8 for a total of three injections.
Effectiveness was evaluated by the following evaluation methods at the time of the initial administration and at evaluation points 1, 2, 4, 6, 8, 10 and 12 weeks after the initial administration.
Effectiveness was evaluated using the WOMAC® evaluation (The Journal of Rheumatology 1988; 15:12, p. 1833-1840) developed by Dr. Nicholas Bellamy. The WOMAC(r) evaluation has been established as a method for evaluating osteoarthritis (The Journal of Rheumatology 2000; 27:11, p. 2635-2641).
The patient response method used the VAS (Visual Analog Scale). With the VAS, the degree of a patient's own feelings in response to each question is indicated by the patient on a 100 mm line, and the degree is evaluated according to the position on the line. Position is represented as length from the left end of the scale. For example, a patient is asked the same question about pain in evaluations before and after administration, and the patient responds by indicating a position (degree) on the scale. Numerical values for improvement are then obtained based on the difference between the length indicated by the patient before administration (baseline) and the length indicated by the patient during each evaluation after administration.
The improvement effects were quantified based on the difference between the length indicated by the patient before administration (baseline) and the length indicated by the patient at the time of each evaluation after administration. The analysis results for questions about pain (WOMAC® A: evaluates intensity of pain during walking, etc.) are shown in Table 1 below. In the table, the lower the value of the change difference below 0, the greater the improvement effect.

Substance: Sodium hyaluronate with introduced aminoethanol-diclofenac [Test Drug]
- WOMAC-A Change difference (test drug group minus placebo group) (patients with 25 ≤ BMI and 26 ≤ DP (weeks)): −13.7
- WOMAC-A Change (average change from baseline) (patients with 25 ≤ BMI and 26 ≤ DP (weeks), VAS 100 mm line): −30.7
- WOMAC-A Change difference (test drug group minus placebo group) (patients with 25 ≤ BMI and 26 ≤ DP (weeks), listed as test drug): extremely great improvement effect
- WOMAC-A Change difference (test drug group minus placebo group) (patients with BMI 25≤ kg/m^2): −13.4
- WOMAC-A Change (average change from baseline) (patients with BMI 25≤ kg/m^2, VAS 100 mm line): −32.6
- WOMAC-A Change difference (test drug group minus placebo group) (patients with BMI <25 and/or DP <26 weeks): −3.2
- WOMAC-A Change (average change from baseline) (patients with BMI <25 and/or DP <26 weeks, VAS 100 mm line): −27.2
- WOMAC-A Change difference (test drug group minus placebo group) (patients with BMI <25 kg/m^2): −2.1
- WOMAC-A Change (average change from baseline) (patients with BMI <25 kg/m^2, VAS 100 mm line): −25.2
- WOMAC-A Change (average change from baseline) (whole group, 30 mg test substance intra-articular at weeks 0, 4, 8, VAS 100 mm line): −28.7
- WOMAC-A Change difference (test drug group minus placebo group) (whole group, VAS 100 mm line): −7.0
